From patent US8846601B2, “Melanocortin receptor-specific peptides” (Palatin Technologies, Inc., priority 2009, dated 2014)
Peptide text beside a SMILES is read from it.

Target: T1, hMC4-R (Homo sapiens (Human), UniProt P32245)
Assay: Competitive binding assay using Eu-NDP-α-MSH (TRF), hMC4-R membranes
Conditions: averaged; Eu-NDP-α-MSH (values marked *); read-out: MC4-R Ki
Experimental: Alternatively, a competitive inhibition binding assay was performed employing Eu-NDP-α-MSH (PerkinElmer Life Sciences catalog No. AD0225) with determination by time-resolved fluorometry (TRF) of the lanthanide chelate. […] After incubation for 90 minutes at 37° C., the reaction was stopped by filtration over AcroWell 96-well filter plates (Pall Life Sciences). The filter plates were washed 4 times with 200 μL of ice-cold phosphate-buffered saline. DELFIA Enhancement solution (PerkinElmer Life Sciences) was added to each well. […] Each assay was conducted in duplicate and mean values were utilized. Ki values were determined by curve-fitting with Graph-Pad Prism® software using a one-site fixed-slope competition binding model.

T1 sequence (P32245 whole entry): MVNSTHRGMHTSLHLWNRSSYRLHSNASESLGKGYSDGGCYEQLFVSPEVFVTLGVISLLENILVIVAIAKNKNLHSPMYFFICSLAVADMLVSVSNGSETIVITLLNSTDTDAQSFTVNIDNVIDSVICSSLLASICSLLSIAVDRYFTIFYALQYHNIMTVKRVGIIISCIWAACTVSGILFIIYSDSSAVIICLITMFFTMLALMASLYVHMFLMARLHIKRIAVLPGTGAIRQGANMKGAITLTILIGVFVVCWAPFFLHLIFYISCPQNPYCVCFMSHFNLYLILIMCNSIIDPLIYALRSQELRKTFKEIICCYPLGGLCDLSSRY

Row | Compound | Ki [nM]
1 | CC(=O)N[C@@H](CCCNC(=N)N)C(=O)N[C@H]1CC(=O)NCCCC[C@@H](C(=O)O)NC(=O)[C@H](Cc2c[nH]c3ccccc23)NC(=O)[C@H](CCCNC(=N)N)NC(=O)[C@@H](Cc2ccccc2)NC(=O)[C@H](CCCNC(=N)N)NC1=O [compound 73, Ac-Arg-cyclo(Asp-Arg- D-Phe-Arg-Trp-Lys)-OH] | 60
2 | CC(=O)N[C@@H](CCCNC(=N)N)C(=O)N[C@H]1CC(=O)NCCCC[C@@H](C(N)=O)NC(=O)[C@H](Cc2c[nH]c3ccccc23)NC(=O)[C@H](CCCNC(=N)N)NC(=O)[C@@H](Cc2ccccc2)NC(=O)[C@H]([C@@H](C)O)NC1=O [compound 35, Ac-Arg-cyclo(Asp-Thr- D-Phe-Arg-Trp-Lys)- NH2] (HELM PEPTIDE1{[ac].R.D.T.[dF].R.W.K.[am]}$PEPTIDE1,PEPTIDE1,3:R3-8:R3$$$V2.0) | 140
3 | CC(=O)N[C@@H](CCCNC(=N)N)C(=O)N[C@H]1CCC(=O)NCCC[C@@H](C(=O)NC2CC2)NC(=O)[C@H](Cc2c[nH]c3ccccc23)NC(=O)[C@H](CCCNC(=N)N)NC(=O)[C@@H](Cc2ccccc2)NC(=O)[C@H](Cc2c[nH]cn2)NC1=O [compound 110, Ac-Arg-cyclo(Glu-His- D-Phe-Arg-Trp-Orn)- NH-cyclopropyl] (HELM PEPTIDE1{[ac].R.E.H.[dF].R.W.[Orn].[C1CC1N[*:1]]}$PEPTIDE1,PEPTIDE1,3:R3-8:R3$$$V2.0) | 1
4 | CC(=O)N[C@@H](CCCNC(=N)N)C(=O)N[C@H]1CC(=O)NCCCC[C@@H](C(N)=O)NC(=O)[C@H](Cc2c[nH]c3ccccc23)NC(=O)[C@H](CCCNC(=N)N)NC(=O)[C@@H](Cc2ccccc2)NC(=O)[C@H](CN)NC1=O [compound 62, Ac-Arg-cyclo(Asp-Dap- D-Phe-Arg-Trp-Lys)- NH2] | 80
5 | CC(=O)N[C@@H](CCCNC(=N)N)C(=O)N[C@H]1CCC(=O)NCCC[C@@H](C(=O)O)NC(=O)[C@H](Cc2c[nH]c3ccccc23)NC(=O)[C@H](CCCNC(=N)N)NC(=O)[C@@H](Cc2ccccc2)NC(=O)[C@H](CCCCN)NC1=O [compound 89, Ac-Arg-cyclo(Glu-Lys- D-Phe-Arg-Trp-Orn)- OH] (HELM PEPTIDE1{[ac].R.E.K.[dF].R.W.[Orn]}$PEPTIDE1,PEPTIDE1,3:R3-8:R3$$$V2.0) | 113
6 | CC(=O)N[C@H](CCCCN)C(=O)N[C@H]1CCCNC(=O)CC[C@@H](C(N)=O)NC(=O)[C@H](Cc2c[nH]c3ccccc23)NC(=O)[C@H](CCCNC(=N)N)NC(=O)[C@@H](Cc2ccccc2)NC(=O)[C@H](Cc2c[nH]cn2)NC1=O [compound 133, Ac-D-Lys-cyclo(Orn- His-D-Phe-Arg-Trp- Glu)-NH2] | 8
7 | CC(=O)N[C@@H](CCCNC(=N)N)C(=O)N[C@H]1CC(=O)NCCCC[C@@H](C(N)=O)NC(=O)[C@H](Cc2c[nH]c3ccccc23)NC(=O)[C@H](CCCNC(=N)N)NC(=O)[C@@H](Cc2ccccc2)NC(=O)[C@H](CCCNC(=N)N)NC1=O [compound 28, Ac-Arg-cyclo(Asp-Arg- D-Phe-Arg-Trp-Lys)- NH2] | 4
8 | CC(=O)N[C@H](CCCNC(=N)N)C(=O)N[C@H]1CC(=O)NCCCC[C@@H](C(N)=O)NC(=O)[C@H](Cc2c[nH]c3ccccc23)NC(=O)[C@H](CCCNC(=N)N)NC(=O)[C@@H](Cc2ccccc2)NC(=O)[C@@H]2C[C@@H](Cc3ccccc3)CN2C1=O [compound 72, Ac-D-Arg-cyclo(Asp- Pro(4R-Bzl)-D-Phe-Arg- Trp-Lys)-NH2] | 2
9 | CC(=O)N[C@@H](CCCNC(=N)N)C(=O)N[C@H]1CC(=O)NCCCC[C@@H](C(N)=O)NC(=O)[C@H](Cc2c[nH]c3ccccc23)NC(=O)[C@H](CCCNC(=N)N)NC(=O)[C@@H](Cc2ccccc2)NC(=O)[C@@H]2C[C@@H](Cc3ccccc3Cl)CN2C1=O [compound 123, Ac-Arg-cyclo(Asp- Pro(4R-2-Cl-Bzl)-D- Phe-Arg-Trp-Lys)-NH2] | 8
10 | CC(=O)N[C@@H](CCCNC(=N)N)C(=O)N[C@H]1CC(=O)NCCCC[C@@H](C(N)=O)NC(=O)[C@H](Cc2c[nH]c3ccccc23)NC(=O)[C@H](CCCNC(=N)N)NC(=O)[C@@H](Cc2ccccc2)NC(=O)[C@@H]2C[C@@H](Cc3cccc(Cl)c3)CN2C1=O [compound 124, Ac-Arg-cyclo(Asp- Pro(4R-3-Cl-Bzl)-D- Phe-Arg-Trp-Lys)-NH2] | 19
11 | CC(=O)N[C@@H](CCCNC(=N)N)C(=O)N[C@H]1CC(=O)NCCCC[C@@H](C(N)=O)NC(=O)[C@H](Cc2c[nH]c3ccccc23)NC(=O)[C@H](CCCNC(=N)N)NC(=O)[C@@H](Cc2ccccc2)NC(=O)[C@H](CNC(=O)[C@H]2CCNC2)NC1=O [compound 118, Ac-Arg-cyclo(Asp- Dap(betaPro)-D-Ph- Arg-Trp-Lys)-NH2] | 145
12 | CSCC[C@@H]1NC(=O)[C@@H](NC(=O)[C@H](CCCNC(=N)N)NC(C)=O)CC(=O)NCCCC[C@@H](C(N)=O)NC(=O)[C@H](Cc2c[nH]c3ccccc23)NC(=O)[C@H](CCCNC(=N)N)NC(=O)[C@@H](Cc2ccccc2)NC1=O [compound 38, Ac-Arg-cyclo(Asp-Met- D-Phe-Arg-Trp-Lys)- NH2] (HELM PEPTIDE1{[ac].R.D.M.[dF].R.W.K.[am]}$PEPTIDE1,PEPTIDE1,3:R3-8:R3$$$V2.0) | 35
13 | CC(=O)N[C@@H](CCCNC(=N)N)C(=O)N[C@H]1CC(=O)NCCCC[C@@H](C(N)=O)NC(=O)[C@H](Cc2c[nH]c3ccccc23)NC(=O)[C@H](CCCCN)NC(=O)[C@@H](Cc2ccccc2)NC(=O)[C@H](CCCCN)NC1=O [compound 7, Ac-Arg-cyclo(Asp-Lys- D-Phe-Lys-Trp-Lys)- NH2] (HELM PEPTIDE1{[ac].R.D.K.[dF].K.W.K.[am]}$PEPTIDE1,PEPTIDE1,3:R3-8:R3$$$V2.0) | 2960
14 | CC(=O)N[C@H](CCCNC(=N)N)C(=O)N[C@H]1CC(=O)NCCCC[C@@H](C(N)=O)NC(=O)[C@H](Cc2c[nH]c3ccccc23)NC(=O)[C@H](CCCNC(=N)N)NC(=O)[C@@H](Cc2ccccc2)NC(=O)[C@H](C)NC1=O [compound 70, Ac-D-Arg-cyclo(Asp- Ala-D-Phe-Arg-Trp- Lys)-NH2] | 46
15 | CC(=O)NC[C@@H]1NC(=O)[C@@H](NC(=O)[C@H](CCCNC(=N)N)NC(C)=O)CC(=O)NCCCC[C@@H](C(N)=O)NC(=O)[C@H](Cc2c[nH]c3ccccc23)NC(=O)[C@H](CCCNC(=N)N)NC(=O)[C@@H](Cc2ccccc2)NC1=O [compound 114, Ac-Arg-cyclo(Asp- Dab(Acetyl)-D-Phe-Arg- Trp-Lys)-NH2] | 88
16 | CC(=O)N[C@@H](CCCNC(=N)N)C(=O)N[C@H]1CC(=O)NCCCC[C@@H](C(N)=O)NC(=O)[C@H](Cc2c[nH]c3ccccc23)NC(=O)[C@H](CCCNC(=N)N)NC(=O)[C@@H](Cc2ccccc2)NC(=O)[C@H](Cc2ccc(O)cc2)NC1=O [compound 11, Ac-Arg-cyclo(Asp-Tyr- D-Phe-Arg-Trp-Lys)- NH2] (HELM PEPTIDE1{[ac].R.D.Y.[dF].R.W.K.[am]}$PEPTIDE1,PEPTIDE1,3:R3-8:R3$$$V2.0) | 43
17 | CC(=O)N[C@@H](CCCNC(=N)N)C(=O)N[C@H]1CCCCNC(=O)C[C@@H](C(N)=O)NC(=O)[C@H](Cc2c[nH]c3ccccc23)NC(=O)[C@H](CCCNC(=N)N)NC(=O)[C@@H](Cc2ccccc2)NC(=O)[C@H](Cc2c[nH]cn2)NC1=O [compound 96, Ac-Arg-cyclo(Lys-His- D-Phe-Arg-Trp-Asp)- NH2] (HELM PEPTIDE1{[ac].R.K.H.[dF].R.W.D.[am]}$PEPTIDE1,PEPTIDE1,3:R3-8:R3$$$V2.0; bridges inferred) | 1

Target: T1, hMC4-R
Assay: Competitive inhibition binding assay using [I125]-NDP-α-MSH, hMC4-R membranes
Conditions: averaged; [I125]-NDP-α-MSH (values not marked *); read-out: MC4-R Ki
Experimental: A competitive inhibition binding assay is performed using membrane homogenates prepared from HEK-293 cells that express recombinant hMC4-R, hMC3-R, or hMC5-R, and from B-16 mouse melanoma cells (containing endogenous MC1-R). In some instances, HEK-293 cells that express recombinant hMC1-R were employed. In the examples that follow, all MC3-R, MC4-R and MC5-R values are for human recombinant receptors. […] Membrane homogenates were incubated with 0.2 nM (for hMC4-R) 0.4 nM (for MC3-R and MC5-R) or 0.1 nM (for mouse B16 MC1-R or hMC1-R) [I^125]-NDP-α-MSH (Perkin Elmer) and increasing concentrations of test peptides of the present invention in buffer containing 25 mM HEPES buffer (pH 7.5) with 100 mM NaCl, 2 mM CaCl2, 2 mM MgCl2, 0.3 mM 1,10-phenanthroline, and 0.2% bovine serum albumin. After incubation for 60 minutes at 37° C., the assay mixture was filtered and the membranes washed three times with ice-cold buffer. Filters were dried and counted in a gamma counter for bound radioactivity. […] Maximal specific binding (100%) was defined as the difference in radioactivity (cpm) bound to cell membranes in the absence and presence of 1 μM NDP-α-MSH. […] Each assay was conducted in triplicate and the actual mean values are described, with results less than 0% reported as 0%. Ki values for test peptides of the present invention were determined using Graph-Pad Prism® curve-fitting software.

Row | Compound | Ki [nM]
18 | CC(=O)N[C@@H](CCC(N)=O)C(=O)N[C@H]1CC(=O)NCCCC[C@@H](C(N)=O)NC(=O)[C@H](Cc2c[nH]c3ccccc23)NC(=O)[C@H](CCCNC(=N)N)NC(=O)[C@@H](Cc2ccccc2)NC(=O)[C@H](CCN)NC1=O [compound 142, Ac-Gln-cyclo(Asp-Dab- D-Phe-Arg-Trp-Lys)- NH2] (HELM PEPTIDE1{[ac].Q.D.[Dab].[dF].R.W.K.[am]}$PEPTIDE1,PEPTIDE1,3:R3-8:R3$$$V2.0) | 15
19 | CC(=O)N[C@@H](CCCNC(=N)N)C(=O)N[C@H]1CCCCNC(=O)C[C@@H](C(N)=O)NC(=O)[C@H](Cc2c[nH]c3ccccc23)NC(=O)[C@H](CCCNC(=N)N)NC(=O)[C@@H](Cc2ccccc2)NC(=O)[C@H](CCN)NC1=O [compound 121, Ac-Arg-cyclo(Lys-Dab- D-Phe-Arg-Trp-Asp)- NH2] (HELM PEPTIDE1{[ac].R.K.[Dab].[dF].R.W.D.[am]}$PEPTIDE1,PEPTIDE1,3:R3-8:R3$$$V2.0) | 0.4
20 | N=C(N)NCCC[C@@H]1NC(=O)[C@@H](Cc2ccccc2)NC(=O)[C@H](Cc2c[nH]cn2)NC(=O)[C@@H](NC(=O)[C@@H](N)CCCNC(=N)N)CCCNC(=O)CC[C@@H](C(N)=O)NC(=O)[C@H](Cc2c[nH]c3ccccc23)NC1=O [compound 99, Arg-cyclo(Orn-His-D- Phe-Arg-Trp-Glu)-NH2] (HELM PEPTIDE1{R.[Orn].H.[dF].R.W.E.[am]}$PEPTIDE1,PEPTIDE1,2:R3-7:R3$$$V2.0) | 6
